IC50 data for seven molecules are collected here from ChEMBL document CHEMBL3108715, “Pan-histone demethylase inhibitors simultaneously targeting Jumonji C and lysine-specific demethylases display high anticancer activities” (J Med Chem, 2014).

Assay [1] concerns the target T1, Lysine-specific demethylase 4E (Homo sapiens, UniProt B2RXH2).
T1 sequence (B2RXH2 whole entry): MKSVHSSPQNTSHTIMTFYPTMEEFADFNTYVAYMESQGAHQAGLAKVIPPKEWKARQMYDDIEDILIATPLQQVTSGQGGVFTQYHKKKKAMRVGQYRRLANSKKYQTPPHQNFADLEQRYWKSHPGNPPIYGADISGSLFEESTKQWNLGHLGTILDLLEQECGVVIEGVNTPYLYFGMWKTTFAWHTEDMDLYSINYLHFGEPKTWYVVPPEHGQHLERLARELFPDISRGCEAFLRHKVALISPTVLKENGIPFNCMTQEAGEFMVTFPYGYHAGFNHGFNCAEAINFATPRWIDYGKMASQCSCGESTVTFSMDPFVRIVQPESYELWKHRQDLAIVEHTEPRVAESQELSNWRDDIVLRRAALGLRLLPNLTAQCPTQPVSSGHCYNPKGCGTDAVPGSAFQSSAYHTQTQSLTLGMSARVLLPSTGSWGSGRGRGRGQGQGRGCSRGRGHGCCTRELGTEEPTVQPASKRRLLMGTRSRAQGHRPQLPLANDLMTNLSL
Description: Inhibition of recombinant JMJD2E (unknown origin) incubated for 15 mins prior to substrate addition by AlphaScreen method

The target of assay [2] is T2, Lysine-specific demethylase 2A (Homo sapiens, UniProt Q9Y2K7).
T2 sequence (Q9Y2K7 whole entry): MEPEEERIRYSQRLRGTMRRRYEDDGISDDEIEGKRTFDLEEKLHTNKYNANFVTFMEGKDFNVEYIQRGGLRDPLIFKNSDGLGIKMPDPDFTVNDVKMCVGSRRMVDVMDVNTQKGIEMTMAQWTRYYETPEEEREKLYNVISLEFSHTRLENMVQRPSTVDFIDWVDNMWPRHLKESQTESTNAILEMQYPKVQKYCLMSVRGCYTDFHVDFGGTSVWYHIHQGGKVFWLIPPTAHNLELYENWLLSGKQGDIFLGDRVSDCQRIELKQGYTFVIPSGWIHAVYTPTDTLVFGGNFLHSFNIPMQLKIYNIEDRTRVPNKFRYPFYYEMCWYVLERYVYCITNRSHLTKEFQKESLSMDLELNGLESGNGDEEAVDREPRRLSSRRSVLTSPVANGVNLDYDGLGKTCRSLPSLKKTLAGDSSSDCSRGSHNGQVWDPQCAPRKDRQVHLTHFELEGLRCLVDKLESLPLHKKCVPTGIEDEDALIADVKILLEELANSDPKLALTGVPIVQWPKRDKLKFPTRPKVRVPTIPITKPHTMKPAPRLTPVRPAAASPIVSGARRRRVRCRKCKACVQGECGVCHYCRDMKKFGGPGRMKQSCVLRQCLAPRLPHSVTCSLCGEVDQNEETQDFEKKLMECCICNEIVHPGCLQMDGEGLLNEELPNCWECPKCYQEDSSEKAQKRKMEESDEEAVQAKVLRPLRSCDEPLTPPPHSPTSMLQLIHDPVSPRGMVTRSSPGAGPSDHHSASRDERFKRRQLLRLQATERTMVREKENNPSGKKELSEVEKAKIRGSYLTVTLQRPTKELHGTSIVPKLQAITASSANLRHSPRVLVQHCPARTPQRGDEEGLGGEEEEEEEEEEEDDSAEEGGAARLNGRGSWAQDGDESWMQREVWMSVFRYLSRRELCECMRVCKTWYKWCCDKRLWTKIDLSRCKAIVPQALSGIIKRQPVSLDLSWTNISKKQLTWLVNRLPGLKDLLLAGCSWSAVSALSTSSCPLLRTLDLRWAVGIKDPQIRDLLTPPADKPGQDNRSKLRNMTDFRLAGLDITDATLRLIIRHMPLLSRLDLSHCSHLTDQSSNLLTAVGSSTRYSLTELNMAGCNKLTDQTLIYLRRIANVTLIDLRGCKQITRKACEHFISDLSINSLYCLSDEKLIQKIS
Description: Inhibition of recombinant FBXL11 (unknown origin) incubated for 15 mins prior to substrate addition by AlphaScreen method

Assay [3] has as its target Lysine-specific histone demethylase 1A (Homo sapiens, UniProt O60341).
Description: Inhibition of human recombinant His-tagged LSD1 (171 to 836) assessed as hydrogen peroxide formation after 5 mins
In assay [4] the target is T3, Lysine-specific demethylase 3A (Homo sapiens, UniProt Q9Y4C1).
T3 sequence (Q9Y4C1 whole entry): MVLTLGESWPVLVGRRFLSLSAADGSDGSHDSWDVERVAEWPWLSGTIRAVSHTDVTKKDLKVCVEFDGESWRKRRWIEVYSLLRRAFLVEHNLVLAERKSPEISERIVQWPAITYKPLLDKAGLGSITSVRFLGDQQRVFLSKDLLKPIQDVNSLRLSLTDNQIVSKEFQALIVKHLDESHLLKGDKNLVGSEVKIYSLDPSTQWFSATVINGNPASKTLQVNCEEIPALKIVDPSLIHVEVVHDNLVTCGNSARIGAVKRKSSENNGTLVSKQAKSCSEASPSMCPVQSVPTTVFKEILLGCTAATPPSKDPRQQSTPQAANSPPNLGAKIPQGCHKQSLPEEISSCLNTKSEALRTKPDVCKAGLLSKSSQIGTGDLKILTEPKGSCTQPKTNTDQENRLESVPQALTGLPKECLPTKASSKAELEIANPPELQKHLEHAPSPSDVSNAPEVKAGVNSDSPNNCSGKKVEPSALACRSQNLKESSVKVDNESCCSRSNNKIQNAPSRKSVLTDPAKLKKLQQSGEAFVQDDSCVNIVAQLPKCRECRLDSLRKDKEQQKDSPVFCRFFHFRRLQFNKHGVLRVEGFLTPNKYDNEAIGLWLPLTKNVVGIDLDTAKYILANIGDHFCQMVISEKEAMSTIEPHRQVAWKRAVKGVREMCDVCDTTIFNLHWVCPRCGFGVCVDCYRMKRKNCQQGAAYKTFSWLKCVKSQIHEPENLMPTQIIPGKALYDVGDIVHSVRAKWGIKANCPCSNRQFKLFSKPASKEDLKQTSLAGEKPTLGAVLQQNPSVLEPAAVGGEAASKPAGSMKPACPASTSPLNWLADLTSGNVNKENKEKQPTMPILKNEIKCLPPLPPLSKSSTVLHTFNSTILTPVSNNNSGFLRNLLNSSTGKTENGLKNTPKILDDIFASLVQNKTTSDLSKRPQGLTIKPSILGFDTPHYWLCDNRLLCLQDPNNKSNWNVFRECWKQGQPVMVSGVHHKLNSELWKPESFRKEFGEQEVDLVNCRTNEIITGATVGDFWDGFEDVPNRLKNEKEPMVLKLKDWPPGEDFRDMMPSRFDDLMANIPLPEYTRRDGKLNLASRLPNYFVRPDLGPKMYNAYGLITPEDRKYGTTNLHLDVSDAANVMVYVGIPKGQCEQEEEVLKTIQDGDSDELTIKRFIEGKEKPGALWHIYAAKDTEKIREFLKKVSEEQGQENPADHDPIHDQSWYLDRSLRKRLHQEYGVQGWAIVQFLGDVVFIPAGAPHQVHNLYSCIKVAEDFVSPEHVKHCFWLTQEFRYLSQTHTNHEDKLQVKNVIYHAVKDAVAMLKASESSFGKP
Description: Inhibition of recombinant JMJD1A (unknown origin) incubated for 15 mins prior to substrate addition by AlphaScreen method

The target of assay [5] is Lysine-specific demethylase 5C (Homo sapiens, UniProt P41229).
Lysine-specific demethylase 5C, sequence (P41229 whole entry): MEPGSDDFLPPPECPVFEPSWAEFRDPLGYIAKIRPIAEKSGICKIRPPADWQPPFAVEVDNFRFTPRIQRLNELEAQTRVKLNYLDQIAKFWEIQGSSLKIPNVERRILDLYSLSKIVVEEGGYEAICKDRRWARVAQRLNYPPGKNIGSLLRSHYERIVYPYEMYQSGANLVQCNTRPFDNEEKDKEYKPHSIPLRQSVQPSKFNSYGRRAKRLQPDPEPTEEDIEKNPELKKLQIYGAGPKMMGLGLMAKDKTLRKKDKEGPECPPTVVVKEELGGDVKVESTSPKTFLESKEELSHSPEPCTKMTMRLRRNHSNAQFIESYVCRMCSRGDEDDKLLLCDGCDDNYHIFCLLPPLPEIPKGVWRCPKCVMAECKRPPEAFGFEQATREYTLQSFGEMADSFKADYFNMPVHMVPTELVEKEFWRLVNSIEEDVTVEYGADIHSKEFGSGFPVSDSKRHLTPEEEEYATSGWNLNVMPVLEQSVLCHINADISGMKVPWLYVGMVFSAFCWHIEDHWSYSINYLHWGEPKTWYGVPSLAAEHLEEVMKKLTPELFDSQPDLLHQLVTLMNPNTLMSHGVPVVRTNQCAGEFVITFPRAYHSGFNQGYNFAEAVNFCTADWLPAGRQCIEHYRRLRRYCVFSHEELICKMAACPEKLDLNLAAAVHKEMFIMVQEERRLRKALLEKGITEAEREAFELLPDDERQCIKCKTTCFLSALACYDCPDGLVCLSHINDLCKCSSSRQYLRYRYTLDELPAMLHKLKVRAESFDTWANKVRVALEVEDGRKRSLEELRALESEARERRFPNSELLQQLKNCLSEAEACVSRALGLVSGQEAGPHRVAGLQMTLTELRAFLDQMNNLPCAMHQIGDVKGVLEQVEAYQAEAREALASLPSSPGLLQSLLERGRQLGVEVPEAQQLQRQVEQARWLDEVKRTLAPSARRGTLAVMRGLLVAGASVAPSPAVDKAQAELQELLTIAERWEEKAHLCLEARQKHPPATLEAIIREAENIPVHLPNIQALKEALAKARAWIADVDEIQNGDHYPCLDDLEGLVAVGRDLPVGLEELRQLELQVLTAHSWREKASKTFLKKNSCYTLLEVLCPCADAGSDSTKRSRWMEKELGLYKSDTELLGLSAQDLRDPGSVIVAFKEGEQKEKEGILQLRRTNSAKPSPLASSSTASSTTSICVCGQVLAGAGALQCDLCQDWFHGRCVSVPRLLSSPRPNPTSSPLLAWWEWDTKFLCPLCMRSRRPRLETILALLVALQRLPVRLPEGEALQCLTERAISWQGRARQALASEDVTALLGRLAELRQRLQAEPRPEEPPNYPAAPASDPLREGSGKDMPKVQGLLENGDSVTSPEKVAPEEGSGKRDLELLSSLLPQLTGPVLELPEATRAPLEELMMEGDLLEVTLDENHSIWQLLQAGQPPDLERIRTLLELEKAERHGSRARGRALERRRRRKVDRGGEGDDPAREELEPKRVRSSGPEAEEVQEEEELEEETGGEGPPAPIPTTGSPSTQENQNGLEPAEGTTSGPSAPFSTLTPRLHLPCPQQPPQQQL
Description: Inhibition of recombinant JARID1C (unknown origin) incubated for 15 mins prior to substrate addition by AlphaScreen method

In general, IC50 refers to the concentration that gives 50% inhibition. Higher therefore signals lower potency. In the case of `COC(=O)c1ccnc(-c2cc(C(=O)O)ccn2)c1`, the IC50 was 5 µM in assay [1]; 4.8 µM in assay [2]; above 100000 nM in assay [3]; 1.1 µM in assay [4]; 0.03 µM in assay [5].

Take `Cl.N[C@@H]1C[C@H]1c1ccc(NC(=O)c2ccc(O)c3ncccc23)cc1` (relative stereo): the IC50 in assay [1] was 3.9 µM; in assay [2] it was 7.8 µM; in assay [3], below 1000 nM; in assay [4] it was 31 µM; in assay [5], 26 µM.

For the molecule `N[C@H]1C[C@@H]1c1ccc(NC(=O)CCCNC(=O)c2ccc(O)c3ncccc23)cc1` (relative stereo), the IC50 is 5.5 µM in assay [1]; 12 µM in assay [2]; below 1000 nM in assay [3]; 12 µM in assay [4]; 35 µM in assay [5].

Turning to `N[C@H]1C[C@@H]1c1ccc(NC(=O)CCCCNC(=O)c2ccc(O)c3ncccc23)cc1` (relative stereo), the IC50 in assay [1] is 3.5 µM; in assay [2], 8.2 µM; in assay [3] it was 1600 nM; in assay [4], 9.7 µM; in assay [5], 21 µM.

Regarding `Cl.N[C@H]1C[C@@H]1c1ccc(NC(=O)CCCCCNC(=O)c2ccc(O)c3ncccc23)cc1` (relative stereo), the IC50 is 5.1 µM in assay [1]; 12 µM in assay [2]; 1000 nM in assay [3]; 9.1 µM in assay [4]; 37 µM in assay [5].

Take `N[C@@H]1C[C@H]1c1ccc(NC(=O)c2ccnc(-c3cc(C(=O)O)ccn3)c2)cc1` (relative stereo): the IC50 in assay [1] turned out to be 0.42 µM; in assay [2], 0.22 µM; in assay [3], 2200 nM; in assay [4] it was 0.14 µM; in assay [5], 0.19 µM.

In the case of `COC(=O)c1ccnc(-c2cc(C(=O)Nc3ccc([C@@H]4C[C@H]4N)cc3)ccn2)c1.Cl` (relative stereo), the half-inhibitory concentration (IC50) was 16 µM in assay [1]; 12.2 µM in assay [2]; below 1000 nM in assay [3]; 37 µM in assay [4]; 8.5 µM in assay [5].
